These results are taken from article PMC6934700, “Structure-Guided Design of a Fluorescent Probe for the Visualization of FtsZ in Clinically Important Gram-Positive and Gram-Negative Bacterial Pathogens” (Scientific Reports, 2019).

One assay deals with S. aureus NRS705 (MRSA). Nature of the assay: MIC assay by broth microdilution. It is filed as cell-based, Staphylococcus aureus. The note with it: for 4× MIC: S. aureus NRS705, concentration equal to four times the MIC; for MIC: Staphylococcus aureus, MRSA NRS705, TH broth, ≥90% growth inhibition after 18-24 hours. Here is the method: MIC assays of 1, 3, and BOFP were conducted by standard broth microdilution in TH media. Briefly, log-phase S. aureus NRS705 (MRSA) cells were added to 96-well microtiter plates (at 5 × 10^5 CFU/mL) containing 2-fold serial dilutions of each test compound in 0.1 mL of TH broth, with each compound concentration being present in duplicate. The MIC is defined as the lowest compound concentration at which growth is ≥90% inhibited after 18-24 hours of aerobic growth.
Background: In broth dilution the organism is exposed to a series of concentrations in liquid medium.

The target of a further assay is K. pneumoniae (KpFtsZ) (Klebsiella pneumoniae, UniProt A0A0H3GRR0). The assay can be described thus: Fluorescence anisotropy binding of BOFP to KpFtsZ. The note with it: 0.1 µM compound, 2 µM KpFtsZ, 37 °C. On the procedure: (§1) Fluorescence anisotropy experiments were performed using an AVIV model ATF105 spectrofluorometer at 15, 25, or 37 °C. In these experiments, bandwidths were set to 4 nm in both the excitation and emission directions, with the excitation and emission wavelengths being set at 488 nm and 510 nm, respectively. BOFP (0.1 µM) was titrated with increasing concentrations (ranging from 0 to 12 µM) of FtsZ in 120 µL of buffer containing 50 mM Tris-HCl (pH 7.6) and 50 mM KCl. After each protein addition, the samples were equilibrated for 3 minutes, whereupon the fluorescence anisotropy was measured.
(§2) In this equation, r0 is the anisotropy of the protein-free compound, r∞ is the anisotropy of the compound in the presence of an infinite concentration of FtsZ, [C]tot is the total concentration of the compound, and [P]tot is the total concentration of protein with each addition. These analyses yielded the equilibrium dissociation constant (Kd) for each binding reaction.
(§3) The binding free energy (ΔG) at temperature T was derived from the corresponding Kd value determined at T using the following relationship:2 ΔG=−RTln(1/Kd)
(§4) The binding enthalpy (ΔH) and entropy (ΔS) were derived from linear fits of the ln(1/Kd) vs. 1/T plots shown in Figs. 3f and 5e using the following relationship:3 ln(1/Kd)=−ΔH/R(1/T)+ΔS/R
(§5) In comparative control experiments, the anisotropy of 0.1 µM BODIPY FL-COOH or BOFP alone or in the presence of SaFtsZ (10 µM), SpyFtsZ (10 µM), KpFtsZ (2 µM), or PaFtsZ (2 µM) was measured at 37 °C in the same buffer described above.

The next assay addresses S. pyogenes (SpyFtsZ) (Streptococcus pyogenes, UniProt Q99YV7). Nature of the assay: Fluorescence anisotropy binding of BOFP to SpyFtsZ. The note with it: 0.1 µM compound, 10 µM SpyFtsZ, 37 °C. Here is the method: as §1, §2, §3, §4, §5
Another assay addresses T1, S. aureus (SaFtsZ) (Staphylococcus aureus, UniProt P0A031).
T1 construct: 6xHis (C); made in house; host or cells: E. coli BLR (DE3), pET-22b(+)
T1 sequence (P0A031 1-390): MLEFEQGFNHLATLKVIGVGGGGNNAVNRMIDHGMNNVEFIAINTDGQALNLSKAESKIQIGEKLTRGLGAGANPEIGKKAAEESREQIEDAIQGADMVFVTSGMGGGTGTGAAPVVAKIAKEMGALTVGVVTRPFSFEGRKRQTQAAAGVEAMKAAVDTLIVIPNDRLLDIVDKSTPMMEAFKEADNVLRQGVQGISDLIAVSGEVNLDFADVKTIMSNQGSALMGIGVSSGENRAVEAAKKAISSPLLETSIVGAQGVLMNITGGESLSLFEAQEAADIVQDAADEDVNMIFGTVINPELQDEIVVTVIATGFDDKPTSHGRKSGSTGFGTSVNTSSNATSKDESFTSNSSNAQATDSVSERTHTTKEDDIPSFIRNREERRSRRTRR
The assay can be described thus: biochemical. As to conditions: 0.1 µM compound, 10 µM SaFtsZ, 37 °C. The assay is classed as binding. Here is the method: as §1, §2, §3, §4
The impact of guanosine nucleotide and magnesium on the binding of BOFP to SaFtsZ was assessed at 37 °C in the same buffer described above. In these studies, the anisotropy of 0.1 µM BOFP alone or in the presence of 10 µM SaFtsZ was measured, with the latter also being measured in the presence of 0.1 mM GMPCPP (a non-hydrolyzable GTP analog), 10 mM MgCl2, or both.
as §5

The target in a further assay is T2, P. aeruginosa (PaFtsZ) (Pseudomonas aeruginosa, UniProt P47204).
T2 construct: 6xHis (C); made in house; host or cells: E. coli BLR (DE3), pET-22b(+)
T2 sequence (P47204 1-394): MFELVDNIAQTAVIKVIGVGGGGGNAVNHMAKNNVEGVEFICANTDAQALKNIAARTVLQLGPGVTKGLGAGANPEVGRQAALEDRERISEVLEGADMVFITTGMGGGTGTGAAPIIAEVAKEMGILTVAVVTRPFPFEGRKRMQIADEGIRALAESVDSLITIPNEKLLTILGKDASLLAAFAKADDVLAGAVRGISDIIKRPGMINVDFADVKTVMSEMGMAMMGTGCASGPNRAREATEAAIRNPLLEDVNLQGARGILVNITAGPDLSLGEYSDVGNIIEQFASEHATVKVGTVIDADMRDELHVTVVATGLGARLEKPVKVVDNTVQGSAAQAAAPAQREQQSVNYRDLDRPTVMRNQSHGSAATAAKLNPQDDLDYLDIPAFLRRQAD
Nature of the assay: Fluorescence anisotropy binding of BOFP to PaFtsZ. The note with it: 0.1 µM compound, 2 µM PaFtsZ, 37 °C. On the procedure:
as §1, §2, §3, §4, §5

Assay [1] has as its target T3, FtsZ in S. aureus NRS705 cells (Staphylococcus aureus, UniProt P0A031).
T3 construct: endogenous in cells; host or cells: S. aureus NRS705 (USA100 MRSA)
The assay is classed as cell-based. As to conditions: 1 µg/mL for 5 minutes. On the procedure: (§6) All differential interference contrast (DIC) and fluorescence microscopy experiments were conducted using an Olympus BX50 microscope equipped with an X-cite Exacte 200 W mercury lamp, a 100× Olympus UPLSAPO oil immersion objective (1.40 aperture), as well as both Chroma ET-EGFP (FITC/Cy2) and ET mCherry, Texas Red filters. Images were captured using a QImaging Retiga R3 charge-coupled device (CCD) camera and the Ocular-Version 2.0 software package (QImaging).
For visualizing FtsZ in Gram-positive bacteria using BOFP, the bacterial cells were grown to log-phase in media suitable for each individual pathogen. Specifically, S. aureus NRS705 (MRSA) was grown in tryptic soy broth (TSB), E. faecalis ATCC 29212 and E. faecium ATCC 19434 were grown in lactobacilli MRS broth, S. agalactiae ATCC 12386 and S. pneumoniae ATCC 49619 were grown in TH broth, and S. pyogenes ATCC 19615 was grown in CAMH broth supplemented with 3% (v/v) LHB. For each Gram-positive bacterial strain, a total of 1 mL of cell culture was centrifuged at 15,000 × g for 1 minute and washed 2–3 times with 1 mL of PBS. After the final wash, the pelleted cells were resuspended in 500 µL of PBS containing 1 µg/mL of BOFP and incubated in the dark for 5 minutes at room temperature. The cells were then centrifuged at 15,000 × g for 1 minute, washed twice with 1 mL of PBS, and subsequently resuspended in 200 µL of PBS. […]

In assay [2] the test system is FtsZ in K. pneumoniae ATCC 13883 cells. The assay can be described thus: FtsZ visualization by fluorescence microscopy in live cells. As to conditions: 1 µg/mL for 5 minutes, co-treated with 3.5 mg/mL pentamidine isethionate. The assay is classed as cell-based, Klebsiella pneumoniae. On the procedure: as §6
For visualizing FtsZ in Gram-negative bacteria using BOFP, E. coli ATCC 25922, K. pneumoniae ATCC 13883, P. aeruginosa ATCC 27853, and A. baumannii ATCC 19606 were grown to log-phase in CAMH broth. For each Gram-negative bacterial strain, a total of 1 mL of cell culture was centrifuged at 15,000 × g for 1 minute and washed twice with 1 mL of Tris-buffered saline (TBS) composed of 50 mM Tris-HCl (pH 7.6) and 150 mM NaCl. After the final wash, the pelleted cells were resuspended in 500 µL of TBS containing 1 µg/mL of BOFP and pentamidine isethionate (at 0.875 mg/mL for E. coli and 3.5 mg/mL for the other three strains). The resuspended cells were then incubated in the dark for 5 minutes at room temperature, centrifuged at 15,000 × g for 1 minute, washed twice with 1 mL of TBS, and subsequently resuspended in 200 µL of TBS. This final cell suspension was then prepared for microscopy as described for the Gram-positive bacterial strains. Comparative control experiments with 1 µg/mL BODIPY FL-COOH were conducted in K. pneumoniae ATCC 13883 cells as described above for BOFP.

The next assay concerns MRSA LAC FtsZ-mCherry. Nature of the assay: MIC (stated as 4× MIC used for treatment). It is filed as cell-based, Staphylococcus aureus. The note with it: concentration equal to four times the MIC.
For a further assay, the system named is S. aureus NRS705. The assay can be described thus: Impact of FtsZ inhibitor treatment on cell morphology and FtsZ localization (DIC/fluorescence microscopy, BOFP labeling). As to conditions: treated at 4x MIC for 3 hours. The assay is classed as cell-based, Staphylococcus aureus. On the procedure:
as §6
(§7) To visualize the impact of treatment with the FtsZ inhibitor 1 using BOFP, S. aureus NRS705 (MRSA), E. coli N43, and K. pneumoniae ATCC 10031 were grown to log-phase in CAMH broth and diluted to an OD600 of 0.1. […] Following this treatment, 1–5 mL of each culture was centrifuged at 15,000 × g for 1 minute and washed twice with 1 mL of PBS (for S. aureus) or TBS (for E. coli and K. pneumoniae). The resulting S. aureus cell pellets were further processed and labeled with BOFP as described above for the Gram-positive bacterial strains and the resulting E. coli and K. pneumoniae cell pellets were further processed and labeled with BOFP as described above for the Gram-negative bacterial strains. The impact of treating S. aureus NRS705 cells with the FtsZ inhibitors PC190723 and TXA707 at 4× MIC (2 µg/mL for PC190723 and 4 µg/mL for TXA707) was also examined using BOFP as described above.

In assay [3] the test system is K. pneumoniae ATCC 10031. The assay can be described thus: MIC (stated as 4× MIC used for treatment). The note with it: concentration equal to four times the MIC. The assay is classed as cell-based, Klebsiella pneumoniae.
Assay [4] deals with E. coli N43. Nature of the assay: Impact of FtsZ inhibitor treatment on cell morphology and FtsZ localization (DIC/fluorescence microscopy, BOFP labeling). The assay is classed as cell-based, Escherichia coli. As to conditions: treated at 4x MIC for 3 hours. Here is the method:
as §6, §7

In assay [5] the test system is E. coli N43. The assay can be described thus: MIC (stated as 4× MIC used for treatment). The assay is classed as cell-based, Escherichia coli. The note with it: concentration equal to four times the MIC.
Assay [6] has as its system K. pneumoniae ATCC 10031. The assay can be described thus: Impact of FtsZ inhibitor treatment on cell morphology and FtsZ localization (DIC/fluorescence microscopy, BOFP labeling). The assay is classed as cell-based, Klebsiella pneumoniae. As to conditions: treated at 4x MIC for 3 hours. On the procedure:
as §6, §7

In brackets after ≈: the same amount, converted by molar mass.

Chain of S. pyogenes (SpyFtsZ) (Q99YV7 entry or part of it): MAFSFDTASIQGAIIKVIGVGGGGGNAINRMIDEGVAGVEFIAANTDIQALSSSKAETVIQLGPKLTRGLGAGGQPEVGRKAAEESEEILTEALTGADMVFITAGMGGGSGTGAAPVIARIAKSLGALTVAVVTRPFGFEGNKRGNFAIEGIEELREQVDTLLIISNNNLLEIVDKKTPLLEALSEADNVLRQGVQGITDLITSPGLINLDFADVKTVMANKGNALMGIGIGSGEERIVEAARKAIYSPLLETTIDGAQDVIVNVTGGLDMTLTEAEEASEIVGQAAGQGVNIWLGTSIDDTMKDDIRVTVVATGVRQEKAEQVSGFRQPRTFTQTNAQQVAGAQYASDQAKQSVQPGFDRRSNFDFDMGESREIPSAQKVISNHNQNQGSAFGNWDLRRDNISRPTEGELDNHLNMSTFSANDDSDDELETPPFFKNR
Chain of K. pneumoniae (KpFtsZ) (A0A0H3GRR0 entry or part of it): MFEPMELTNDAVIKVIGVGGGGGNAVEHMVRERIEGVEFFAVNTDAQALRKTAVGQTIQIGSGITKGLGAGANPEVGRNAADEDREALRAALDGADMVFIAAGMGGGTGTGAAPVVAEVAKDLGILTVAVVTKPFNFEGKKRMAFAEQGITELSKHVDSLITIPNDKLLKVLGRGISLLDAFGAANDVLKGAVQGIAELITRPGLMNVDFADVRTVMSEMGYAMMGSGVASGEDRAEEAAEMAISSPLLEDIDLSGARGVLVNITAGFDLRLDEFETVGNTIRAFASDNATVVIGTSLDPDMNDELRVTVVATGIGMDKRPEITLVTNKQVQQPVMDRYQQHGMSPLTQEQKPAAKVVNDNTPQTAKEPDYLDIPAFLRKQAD

Turning to `NC(=O)c1c(F)ccc(OCc2nc3cc(C(F)(F)F)cnc3s2)c1F` [TXA707], the “4× MIC” value in the assay with S. aureus NRS705 (MRSA) was 4 µg/mL.

For `CC1=CC(C)=[N+]2C1=Cc1ccc(CCC(=O)O)n1[B-]2(F)F` [BODIPY FL-COOH, 3-(5,5-difluoro-7,9-dimethyl-5H-5λ^4,6λ^4-dipyrrolo[1,2-c:2′,1′-f][1,3,2]diazaborinin-3-yl)propanoic acid, reference compound], the “Binding interaction (fluorescence anisotropy change on adding FtsZ)” value on K. pneumoniae (KpFtsZ) is recorded as “no binding interactions with BODIPY FL-COOH were detectable”; on S. pyogenes (SpyFtsZ), “no such binding interactions were observable”; at S. aureus (SaFtsZ), “No such anisotropy change was observed”; at P. aeruginosa (PaFtsZ) it was “no binding interactions with BODIPY FL-COOH were detectable”. The results for the “Fluorescence staining / FtsZ labeling in live cells” value in [1] and in assay [2] were “no fluorescence staining of the S. aureus cells was detectable” and “no such FtsZ staining was detectable”, respectively.

Broadly, the MIC is the smallest concentration in the dilution series that meets the test's criterion for growth inhibition. Higher therefore signals weaker potency. In the assay on S. aureus NRS705 (MRSA), `NC(=O)c1c(F)ccc(OC(CO)c2nc(-c3ccc(C(F)(F)F)cc3)c(Br)o2)c1F` (centres unmarked) [compound 3] had an MIC of 0.5 µg/mL (≈ 0.986 µM).

On to `NC(=O)c1c(F)ccc(OCc2nc(-c3ccc(C(F)(F)F)cc3)c(Br)o2)c1F` [compound 1], for which the “4× MIC” value in the assay with MRSA LAC FtsZ-mCherry is listed as 0.25 µg/mL; with S. aureus NRS705 (MRSA), 1 µg/mL; in the assay with K. pneumoniae ATCC 10031 [3] it was 4 µg/mL; in the assay on E. coli N43 [5] it was 4 µg/mL. The molecule further registered an MIC in the assay with S. aureus NRS705 (MRSA) of 0.25 µg/mL (≈ 0.524 µM). The “Change in cell morphology” value in the assay on S. aureus NRS705 is reported as “cell enlargement”; in the assay on E. coli N43 [4], “filamentation”; with K. pneumoniae ATCC 10031 [6] it was “filamentation”. For the same molecule, the “FtsZ localization visualized with BOFP” value is “clear mislocalization of FtsZ and an absence of Z-rings” with S. aureus NRS705 (then 1 µg/mL BOFP for 5 minutes); “clear mislocalization of FtsZ and an absence of Z-rings” in the assay with E. coli N43 [4] (then 1 µg/mL BOFP with 0.875 mg/mL pentamidine isethionate for 5 minutes); “clear mislocalization of FtsZ and an absence of Z-rings” in the assay on K. pneumoniae ATCC 10031 [6] (then 1 µg/mL BOFP with 3.5 mg/mL pentamidine isethionate for 5 minutes).

Regarding `NC(=O)c1c(F)ccc(OCc2nc3cc(Cl)cnc3s2)c1F` [PC190723], the “4× MIC” value with S. aureus NRS705 (MRSA) is given as 2 µg/mL.
